Experimental data taken from patent publication US20200190101A1, “Composition Containing Novel Glutamic Acid Derivative And Block Copolymer, And Use Thereof” (Nippon Kayaku Kabushiki Kaisha, priority 2015, published 2020).

Tests used:
[1] = Phosphate buffered physiological saline (PBS) solution stability test; assay type: physicochemical; conditions: PBS (DMSO stock), 37° C.
Description: 0.148 mL of the doxorubicin-bonded glutamic acid derivative PBS solution was dissolved in 0.148 mL of a PBS solution, and the solution was allowed to react at 37° C.
PBS (0.100 mL) was added to the EHC-bonded glutamic acid derivative solution (0.100 mL), and the mixture was allowed to react at 37° C. The reaction liquid was analyzed by HPLC, and thereby the residual ratio of the EHC-bonded glutamic acid derivative was determined.
PBS (0.117 mL) was added to the camptothecin-bonded glutamic acid derivative solution (0.117 mL), and the mixture was allowed to react at 37° C. The reaction liquid was analyzed by HPLC, and thereby the residual ratio of the glutamic acid derivative was determined.
The reaction liquid was analyzed by HPLC, and thereby the residual ratio of the EHC-bonded glutamic acid derivative was determined.

[2] = test system: γ-glutamyl transpeptidase (GGT); assay: γ-Glutamyl transpeptidase (GGT) enzyme recognition test; assay type: biochemical; conditions: 37° C.
Description: To 0.150 mL of this doxorubicin-bonded glutamic acid derivative (prodrug) PBS solution, 0.150 mL of a 2 U/mL GGT solution obtained by dissolving GGT (0.22 mg, 8 U/mg) (Sigma-Aldrich Company) in PBS (0.880 mL) was added, and the mixture was allowed to react at 37° C.
The reaction liquid was analyzed by HPLC, and thus the residual ratio of the doxorubicin-bonded glutamic acid derivative (prodrug) and the production ratio of doxorubicin were determined.
To 0.100 mL of the doxorubicin-bonded glutamic acid derivative PBS solution, 0.100 mL of a 2 U/mL GGT solution obtained by dissolving GGT (0.38 mg, 8 U/mg) (Sigma-Aldrich Company) in PBS (1.520 mL) was added, and the mixture was allowed to react at 37° C. […]

[3] = after 6 hours, 2 mM PBS solution + 2 U/mL GGT solution

SMILES	Residual ratio of the glutamic acid derivative [2, 3]	further results
CC[C@@]1(OC(=O)OCc2ccc(NC(=O)CC[C@H](N)C(=O)O)cc2)C(=O)OCc2c1cc1n(c2=O)Cc2cc3ccccc3nc2-1 [Synthesis Example 3, (((4-((S)-4-amino-4-carboxybutanamido)benzyl)oxy)carbonyl)camptothecin]		Residual ratio of the glutamic acid derivative in PBS ([1]; after 3 hours): 74%
COc1cccc2c1C(=O)c1c(O)c3c(c(O)c1C2=O)C[C@@](O)(C(=O)CO)C[C@@H]3O[C@H]1C[C@H](NC(=O)CC[C@H](N)C(=O)O)[C@H](O)[C@H](C)O1 [Comparative Example 1, (S)-(4-amino-4-carboxybutanamido)doxorubicin, reference compound]	93%	
CCc1c2c(nc3ccc(OC(=O)OCc4ccc(NC(=O)CC[C@H](N)C(=O)O)cc4)cc13)-c1cc3c(c(=O)n1C2)COC(=O)[C@]3(O)CC [Synthesis Example 2, (((4-((S)-4-amino-4-carboxybutanamido)benzyl)oxy)carbonyl)-10-oxy-7-ethylcamptothecin]		Residual ratio of the glutamic acid derivative in PBS ([1]; after 3.5 hours): 52%
N[C@@H](CCC(=O)Nc1ccc(COC(=O)Nc2ccn([C@@H]3O[C@H](CO)C(O)[C@H]3O)c(=O)n2)cc1)C(=O)O (stereo partly drawn) [Synthesis Example 5, (((4-((S)-4-amino-4-carboxybutanamido)benzyl)oxy)carbonyl)cytarabine]		Residual ratio of the glutamic acid derivative ([2]; after 6.5 hours, 1 mM PBS solution + 2 U/mL GGT solution): 34%
COc1cccc2c1C(=O)c1c(O)c3c(c(O)c1C2=O)CC(O)(C(=O)CO)CC3OC1CC(NC(=O)OCc2ccc(NC(=O)CCC(N)C(=O)O)cc2)C(O)C(C)O1 [Synthesis Example 4, (((4-((S)-4-amino-4-carboxybutanamido)benzyl)oxy)carbonyl)epirubicin]	5%	
CC[C@@]1(O)C(=O)OCc2c1cc1n(c2=O)Cc2cc3c(NC(=O)CC[C@H](N)C(=O)O)cccc3nc2-1 [Comparative Example 2, 9-((S)-4-amino-4-carboxybutanamido)camptothecin, reference compound]	99%	
